Converted amounts (≈) assume the structure as drawn.
Key:
Type in all cases: cell-based
[1] = test system: Staphylococcus aureus ATCC 29213 (MSSA); assay: Broth microdilution MIC, S. aureus ATCC 29213 (MSSA); details: broth microdilution, 37° C., 20 hours, read-out: MIC S. aureus ATCC 29213 (MSSA)
Procedure, shortened: (§1)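 Broth microdilution in strain-specific test medium with ~5.0×10^5 cfu/ml inoculum, 1% DMSO and two-fold compound dilutions from 64 to 0.0625 μg/ml. Plates were held 20 hours at 37° C in ambient air. S. pneumoniae colonies were grown beforehand on blood agar in 5% CO2.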

[2] = test system: Staphylococcus aureus NRS384 (MRSA); assay: Broth microdilution MIC, S. aureus NRS384 (MRSA); details: Staphylococcus aureus; broth microdilution, 37° C., 20 hours; read-out: MIC NRS 384 (MRSA)
Procedure, shortened: as §1

[3] = test system: Streptococcus pneumoniae ATCC 49619; assay: Broth microdilution MIC, S. pneumoniae ATCC 49619; details: ATCC49619, broth microdilution, 37° C., 20 hours, read-out: MIC S. pneumoniae ATCC 49619
Procedure, shortened: as §1

[4] = test system: Enterococcus faecium ATCC 700221 (VRE); assay: Broth microdilution MIC, E. faecium ATCC 700221 (VRE); details: Enterococcus faecium; broth microdilution, 37° C., 20 hours; read-out: MIC E. faecium ATCC 700221 (VRE)
Procedure, shortened: as §1

[5] = test system: Escherichia coli ATCC 25922; assay: Broth microdilution MIC, E. coli ATCC 25922 (MHIIB w & w/o 4 mM EDTA); details: broth microdilution, 37° C., 20 hours; for MIC: Escherichia coli, ATCC25922, without EDTA, read-out: MIC E. coli ATCC 25922; for MIC E. coli ATCC 25922 + 4 mM EDTA: with 4 mM EDTA
Procedure, shortened: as §1

[6] = test system: Bacillus subtilis ATCC 6633; assay: Broth microdilution MIC, B. subtilis ATCC 6633; details: ATCC6633, broth microdilution, 37° C., 20 hours, read-out: MIC B. subtilis ATCC 6633
Procedure, shortened: as §1

[7] = test system: Enterococcus faecalis ATCC 29212; assay: Broth microdilution MIC, E. faecalis ATCC 29212; details: ATCC29212, broth microdilution, 37° C., 20 hours, read-out: MIC E. faecalis ATCC 29212
Procedure, shortened: as §1

MIC [1] [µg/mL] | MIC [2] [µg/mL] | MIC [3] [µg/mL] | MIC [4] [µg/mL] | MIC [5] [µg/mL] | MIC E. coli ATCC 25922 + 4 mM EDTA [5] [µg/mL] | MIC [6] [µg/mL] | MIC [7] [µg/mL] | Structure (SMILES)
16 | 16 | 4 | 8 | > 64 | 64 | 4 | 16 | Cl.Cl.O=c1[nH]c(NCc2ccc(Cl)c(Cl)c2)nc2cnn(C3CCN(CC4CCCCN4)CC3)c12 (stereo not shown) [Compound 249, 5-((3,4-dichlorobenzyl)amino)-1-(1-(piperidin-2-ylmethyl)piperidin-4-yl)-1H-pyrazolo[4,3-d]pyrimidin-7(6H)-one dihydrochloride]
> 64 | > 64 | 8 | 4 | > 64 | >64 | 4 | > 64 | CC(C)(C)OC(=O)N1CCCC(CN2CCC(n3ncc4nc(NCc5ccc(Cl)c(Cl)c5)[nH]c(=O)c43)CC2)C1.Cl (stereo not shown) [Compound 250]
4 | 4 | 2 | 2 | > 64 | >64 | 2 | 4 | Cl.O=C(c1ccccn1)N1CCC(n2ncc3nc(NCc4ccc(Cl)c(Cl)c4)[nH]c(=O)c32)CC1 [Compound 255, 5-((3,4-Dichlorobenzyl)amino)-1-(1-picolinoylpiperidin-4-yl)-1H-pyrazolo[4,3-d]pyrimidin-7(6H)-one hydrochloride]

Continued, molecule first:

Structure (SMILES) | MIC [1] [µg/mL] | MIC [2] [µg/mL] | MIC [3] [µg/mL] | MIC [4] [µg/mL] | MIC [5] [µg/mL] | MIC E. coli ATCC 25922 + 4 mM EDTA [5] [µg/mL] | MIC [6] [µg/mL] | MIC [7] [µg/mL]
Cl.Cl.O=c1[nH]c(NCc2ccc(Cl)c(Cl)c2)nc2cnn(C3CCN(CC4CCCNC4)CC3)c12 (stereo not shown) [Compound 251, 5-((3,4-dichlorobenzyl)amino)-1-(1-(piperidin-3-ylmethyl)piperidin-4-yl)-1H-pyrazolo[4,3-d]pyrimidin-7(6H)-one dihydrochloride] | 16 | 16 | 8 | 16 | > 64 | 64 | 4 | 16
Cl.O=C(c1ccncc1)N1CCC(n2ncc3nc(NCc4ccc(Cl)c(Cl)c4)[nH]c(=O)c32)CC1 [Compound 252, 5-((3,4-dichlorobenzyl)amino)-1-(1-isonicotinoylpiperidin-4-yl)-1H-pyrazolo[4,3-d]pyrimidin-7(6H)-one hydrochloride] | 4 | 4 | 2 | 2 | > 64 | >64 | 1 | 4
O=C(c1cocn1)N1CCC(n2ncc3nc(NCc4ccc(Cl)c(Cl)c4)[nH]c(=O)c32)CC1 [Compound 253, 5-[(3,4-Dichlorophenyl)methylamino]-1-[1-(oxazole-4-carbonyl)-4-piperidyl]-6H-pyrazolo[4,3-d]pyrimidin-7-one] | 2 (≈ 4.1 µM) | 2 (≈ 4.1 µM) | 2 (≈ 4.1 µM) | 2 (≈ 4.1 µM) | > 64 | >64 | 1 (≈ 2.05 µM) | 4 (≈ 8.19 µM)
O=C(c1nccs1)N1CCC(n2ncc3nc(NCc4ccc(Cl)c(Cl)c4)[nH]c(=O)c32)CC1 [Compound 254, 5-[(3,4-Dichlorophenyl)methylamino]-1-[1-(thiazole-2-carbonyl)-4-piperidyl]-6H-pyrazolo[4,3-d]pyrimidin-7-one] | 2 (≈ 3.97 µM) | 2 (≈ 3.97 µM) | 4 (≈ 7.93 µM) | 2 (≈ 3.97 µM) | > 64 | >64 | 1 (≈ 1.98 µM) | 4 (≈ 7.93 µM)
Cl.O=C(c1cccnc1)N1CCC(n2ncc3nc(NCc4ccc(Cl)c(Cl)c4)[nH]c(=O)c32)CC1 [Compound 256, 5-((3,4-Dichlorobenzyl)amino)-1-(1-nicotinoylpiperidin-4-yl)-1H-pyrazolo[4,3-d]pyrimidin-7(6H)-one hydrochloride] | 8 | 4 | 4 | 2 | > 64 | >64 | 2 | 4

Reference: US10723741B1, “DNA polymerase IIIC inhibitors and use thereof” (Acurx Pharmaceuticals, LLC, priority 2018, dated 2020)
